Tests used:
patient-derived GB cells = assay: TMZ resistance evaluation, patient-derived GB cells in 2D culture; assay type: cell-based; conditions: Homo sapiens, 72 h, 3 patient-derived GB cells, 3 days, all three cell types, read-out: IC50 of TMZ, patient-derived cells grown in 2D culture
Description: The resistance of patient-derived cells to TMZ (LIXIN, China) was assessed in fibrin 3D-bio-ink and in 2D culture. Patient-derived cells were seeded in fibrin 3D-bio-ink at 1×10^7 cells/ml density to match resemble a very dens GB tissue, in different TMZ concentrations (2000 μM -0.01 μM) for 7 days. For the 2D culture TMZ resistance evaluation 20,000-40,000 cells/well were seeded in 24 well plate in fresh DMEM. We replaced the media to media with different TMZ concentrations (10 μM -0.01 μM) for 3 days. Then, the 3D-bio-ink samples were placed in 500 μl PrestoBlue in 24 well plate and incubated at 37° C. for 3 h.

P-selectin (SELP) = molecular target: T1, P-selectin (SELP) (Homo sapiens, UniProt P16109); conditions: lymphocytes; read-out: IC50 for inhibition of SELP binding in lymphocytes; cited from earlier work
T1 sequence (P16109 42-830): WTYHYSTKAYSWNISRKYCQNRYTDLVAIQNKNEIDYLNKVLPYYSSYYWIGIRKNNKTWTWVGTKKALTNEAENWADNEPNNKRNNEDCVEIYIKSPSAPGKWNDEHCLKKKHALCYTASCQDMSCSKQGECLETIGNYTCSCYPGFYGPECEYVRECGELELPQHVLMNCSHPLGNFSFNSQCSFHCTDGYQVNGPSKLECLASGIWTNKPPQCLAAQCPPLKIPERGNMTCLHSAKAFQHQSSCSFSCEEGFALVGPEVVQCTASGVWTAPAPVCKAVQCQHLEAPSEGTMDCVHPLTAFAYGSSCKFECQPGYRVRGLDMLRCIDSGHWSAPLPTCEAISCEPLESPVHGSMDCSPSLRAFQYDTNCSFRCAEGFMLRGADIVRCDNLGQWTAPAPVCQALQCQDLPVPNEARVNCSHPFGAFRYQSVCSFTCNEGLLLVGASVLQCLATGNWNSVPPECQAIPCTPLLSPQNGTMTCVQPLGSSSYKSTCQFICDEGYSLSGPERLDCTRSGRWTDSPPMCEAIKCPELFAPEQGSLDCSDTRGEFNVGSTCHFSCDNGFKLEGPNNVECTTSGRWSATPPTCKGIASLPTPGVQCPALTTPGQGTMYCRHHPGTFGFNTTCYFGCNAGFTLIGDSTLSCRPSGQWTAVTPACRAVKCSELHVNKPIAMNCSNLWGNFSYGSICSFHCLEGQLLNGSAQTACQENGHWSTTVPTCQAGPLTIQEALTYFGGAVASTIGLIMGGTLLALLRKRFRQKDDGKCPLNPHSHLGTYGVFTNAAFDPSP

T98G-F cells [1] = assay: 2D proliferation assay with SELPi (IncuCyte); assay type: cell-based, human; conditions: 0.5 μM SELPi
Description: (§1) For growth curve evaluation, U-87MG and T98G human GB cells dormant and fast-growing tumor cells (29) (25,000 cells/well) were seeded onto 24-well plates in complete DMEM and incubated for 72 h (37° C.; 5% CO2). For the comparison of […] cell types growth curves in 2D culture, 10,000 cells/well were cultured in DMEM following a daily incubation with PrestoBlue® reagent for 4 h. For proliferation evaluation in the presence of SELPi, U-87MG and T98G human GB cells generating dormant and fast-growing tumors, or PD-GB4 cells (25,000 cells/well) were plated onto 24-well plate in complete DMEM and incubated for 24 h (37° C.; 5% CO2) to allow cell attachment. Cells were then treated with either 0.5 μM SELPi or with DMSO vehicle at corresponding % v/v of 0.2% v/v, prepared in medium mixture at 1:1:1:1:1 ratio of DMEM, astrocytes medium, microglia medium, pericytes medium and Endo-Gro medium, for 30 min. All wells were washed twice with PBS and incubated further with fresh medium mixture. Cell proliferation was monitored by IncuCyte® Zoom Live cell analysis system (Essen Bioscience), while the first images were taken right before the treatment. Each group was assayed in triplicates and the experiment was repeated in three independent times. Proliferation of cells was normalized to time 0 and presented as percent (%) of cell confluence.

U-87MG-F cells [2] = assay: 2D proliferation assay with SELPi (IncuCyte); assay type: cell-based, human; conditions: 0.5 μM SELPi
Description: as §1

PD-GB4 cells [3] = assay: 2D proliferation assay with SELPi (IncuCyte); assay type: cell-based, human; conditions: 0.5 μM SELPi
Description: as §1

T98G-F cells [4] = assay: Proliferation in fibrin 3D-bio-ink in the presence of SELPi (ImageJ, RLU); assay type: cell-based, human; conditions: 0.5 M [sic] KF38789, fibrin 3D-bio-ink; p=0.00003
Description: (§2) PD-GB4 iRFP-labeled were casted into 96 glass bottom well plates (Cellvis, California, USA) in a core tumor at a density of 1×10^7 cells/ml and surrounded with 1×10^6 cells/ml un-labeled hAstro. Experiments were done in a medium mixture at 1:1:1 ratio of DMEM, astrocytes medium and microglia medium. For invasion estimation of dormant versus fast-growing cell types, mCherry-labeled U-87MG and T98-G human GB cells (2×10^6 cells/ml) were plated in a glass bottom 96-well plates in the core of fibrin 3D-bio-ink. The surrounding fibrin 3D-bio-ink was an empty, clear fibrin 3D-bio-ink. Experiments were done in a medium mixture at 1:1:1:1:1 ratio of DMEM, astrocytes medium, microglia medium, pericytes medium and Endo-Gro medium. Cell invasion was monitored for 2-5 weeks using EVOS FL Auto cell imaging system and quantified by ImageJ software, presented here as relative light units (RLU). Cells invasion was normalized by comparing the size of the cell core at day 1 (polygon drawing shape) up to day 14. 2 weeks. Each group contained 6-12 samples and the experiments were repeated in three independent times. For the evaluation of proliferation in the presence of P-selectin inhibitor (SELPi), mCherry-labeled U-87MG-F and T98G-F cells generating fast-growing tumors or iRFP-labeled PD-GB4 cells (4×10^6 cells/ml) were seeded in a glass bottom 96-well plate in the core of fibrin 3D-bio-ink. The surrounding fibrin 3D-bio-ink was an empty, clear fibrin 3D-bio-ink. Cells were then treated with […] KF38789 which is a selective inhibitor of P-selectin (SELPi) which were chosen to serve as a small molecule drug. […] P-selectin (SELP) functions as a cell adhesion molecule on the surfaces of cells which binds carbohydrates (18). It is also involved in tumor cell binding and promote their invasion by supporting a permissive metastatic microenvironment and SELP is highly expressed in GB (28). […] Proliferation was quantified during time with ImageJ software by RLU. […]

U-87MG-F cells [5] = assay: as above; assay type: cell-based, human; conditions: 0.5 M [sic] KF38789, fibrin 3D-bio-ink; p=4×10^−6
Description: as §2

PD-GB4 cells [6] = assay: as above; assay type: cell-based, human; conditions: 0.5 M [sic] KF38789, fibrin 3D-bio-ink; p=0.0001
Description: as §2

IC50 (patient-derived GB cells) | SMILES | IC50 (P-selectin (SELP)) | Effect on T98G-F cells in 2D culture (T98G-F cells [1]) | Effect on U-87MG-F cells in 2D culture (U-87MG-F cells [2]) | Effect on proliferation of PD-GB4 in 2D culture (PD-GB4 cells [3]) | Inhibition of T98G fast-growing cells in fibrin 3D-bio-ink (T98G-F cells [4]) | Inhibition of U-87MG fast-growing cells in fibrin 3D-bio-ink (U-87MG-F cells [5]) | Inhibition of PD-GB4 cell proliferation in fibrin 3D-bio-ink (PD-GB4 cells [6])
~4 nM | Cn1nnc2c(C(N)=O)ncn2c1=O [TMZ, Temozolomide] |  |  |  |  |  |  | 
 | COc1ccc(C2CC(c3c(O)cc(C)oc3=O)=NCCS2)c(OC)c1 (centres unmarked) [SELPi, KF38789] | 2000 nM | did not affect | did not affect | did not affect | significant inhibition | significant inhibition | significant inhibition
